Our source for the IC50 values is patent US12435128B2, “Method for predicting therapeutic effect of LSD1 inhibitor based on expression of INSM1” (TAIHO PHARMACEUTICAL CO., LTD., priority 2017, dated 2025).

One test relates to HEL cells (human acute myelocytic leukemia cell lines). The test is described as follows: Cell-growth inhibition test: HEL cells. Format: cell-based. The settings on record: HEL cells; read-out: IC50 (nM), Cell-Growth Inhibition Test: HEL Cells. The method, then:
(§1) Under the following conditions, an in vitro cell-growth inhibition test was performed with respect to HEL cells (human acute myelocytic leukemia cell lines), NCI-H1417 cells (human small-cell lung cancer cell lines), and NCI-H146 cells (human small-cell lung cancer cell lines).
(§2) The cells with the Example compound or with dimethylsulfoxide alone were cultured at 37° C. in a 5% carbon-dioxide-containing incubator for 5 days (HEL cells) or 10 days (NCI-H1417 cells and NCI-H146 cells). After culture, the plate was allowed to stand at room temperature for 30 minutes, and 100 μL of the supernatant was removed from each well to leave 100 μL of the cell culture solution. To each well containing the remaining 100 μL of the cell culture solution, the same amount of CellTiter-Glo 2.0 Assay (Promega, Cat #: G9242) was added. The microplate was shaken with a plate mixer for 1 minute and then allowed to stand in a dark place for 10 minutes. Thereafter, the luminescence intensity of viable cells in each well was measured using a microplate reader (PerkinElmer, EnSpire). […] Cell growth rate(%)=T/C×100 • T: The luminescence intensity in a well to which the test compound was added (count per second) • C: The luminescence intensity in a well to which dimethylsulfoxide alone was added (count per second)
As for `Cn1ncc2cc(-c3ccc(C(=O)N4[C@@H]5CC[C@H]4C[C@H](N)C5)cc3-c3ccc(C#N)c(F)c3)c(F)cc21` [Example 24, 4-[5-[(3-exo)-3-amino-8-azabicyclo[3.2.1]octane-8-carbonyl]-2-(6-fluoro-1-methyl-indazol-5-yl)phenyl]-2-fluoro-benzonitrile], the IC50 (in general, the concentration at which inhibition is half-maximal) is 3.5 nM.
Take `Cc1ccc(-c2ccc(C(=O)N3CC[C@H](N)C3)cc2-c2ccc([N+](=O)[O-])cc2)cc1` [Example 99, [(35)-3-aminopyrrolidin-1-yl]-[3-(4-nitrophenyl)-4-(p-tolyl)phenyl]methanone]: the IC50 stood at 11 nM.
As for `N#Cc1ccc(-c2cc(C(=O)N3[C@@H]4CC[C@H]3C[C@H](N)C4)ccc2-c2ccc3cccnc3c2F)cc1F` [Example 105, 4-[5-[(3-exo)-3-amino-8-azabicyclo[3.2.1]octane-8-carbonyl]-2-(8-fluoro-7-quinolyl)phenyl]-2-fluoro-benzonitrile], the IC50 turned out to be 5.74 nM.
Still for that read-out and setting: under `Cn1cnc2cc(-c3ccc(C(=O)N4[C@@H]5CC[C@H]4C[C@@H](N)C5)cc3-c3ccc(C#N)c(F)c3)c(F)c(F)c21` [Example 126, 4-[5-[(3-endo)-3-amino-8-azabicyclo[3.2.1]octane-8-carbonyl]-2-(6,7-difluoro-1-methyl-benzimidazol-5-yl)phenyl]-2-fluoro-benzonitrile] stands 5.29 nM; under `CN1CCOc2cc(-c3ccc(C(=O)N4C5CCC4CC(N)C5)cc3-c3ccc(C#N)c(F)c3)ccc21` (stereo not drawn) [Example 128, 4-[5-[(3-endo)-3-amino-8-azabicyclo[3.2.1]octane-8-carbonyl]-2-(4-methyl-2,3-dihydro-1,4-benzoxazin-7-yl)phenyl]-2-fluoro-benzonitrile], 5.7 nM; under `Cc1ccc(-c2ccc(C(=O)N3C4CCC3CC(N)C4)cc2-c2ccc(C#N)c(F)c2)c(F)c1F` (stereo not drawn) [Example 144, 5′-((3-endo)-3-amino-8-azabicyclo[3.2.1]octane-8-carbonyl)-2″,3,3″-trifluoro-4″-methyl-[1,1′:2′,1″-terphenyl]-4-carbonitrile], 0.27 nM.

The same test, now with this note: Homo sapiens, HEL, read-out: IC50 (nM), Cell-Growth Inhibition Test: HEL Cells.
With `CC(C)(O)Cn1ccc2cc(-c3ccc(C(=O)N4[C@H]5CC[C@@H]4[C@H](N)C5)cc3-c3ccc(C#N)c(F)c3)c(F)cc21` (single isomer, unassigned; isomer-b) [Example 171], the half-inhibitory concentration (IC50) came out at 0.08 nM.
For the molecule `Cc1ccc(-c2ccc(C(=O)N3CCC4(CNC4)C3)cc2-c2ccc(C#N)cc2)cc1` [Example 5, 4-[5-(2,7-diazaspiro[3.4]octane-7-carbonyl)-2-(p-tolyl)phenyl]benzonitrile], the half-inhibitory concentration (IC50) amounted to 34.8 nM.
Take `N#Cc1ccc(-c2cc(C(=O)N3CC[C@H](N)C3)ccc2-c2ccc(CC3(O)CC3)cc2)cc1` [Example 59, 4-[5-[(3S)-3-aminopyrrolidine-1-carbonyl]-2-[4-[(1-hydroxycyclopropyl)methyl]phenyl]phenyl]benzonitrile]: the IC50 was determined as 32 nM.
`N#Cc1ccc(-c2cc(C(=O)N3CC[C@H](N)C3)ccc2-c2ccc(C3(C4(O)CC4)CC3)cc2)cc1` [Example 68, 4-[5-[(3S)-3-aminopyrrolidine-1-carbonyl]-2-[4-[1-(1-hydroxycyclopropyl)cyclopropyl]phenyl]phenyl]benzonitrile]: the IC50 turned out to be 23.9 nM.
On to `COCCc1ccc(-c2ccc(C(=S)N3CC[C@H](N)C3)cc2-c2ccc(C#N)c(F)c2)c(F)c1` [Example 94, 4-[5-[(3S)-3-aminopyrrolidine-1-carbothioyl]-2-[2-fluoro-4-(2-methoxyethyl)phenyl]phenyl]-2-fluoro-benzonitrile], for which the IC50 amounted to 29.4 nM.
For `CN(C)c1ccc(-c2ccc(C(=O)N3CC[C@H](N)C3)cc2-c2ccc(C#N)c(F)c2)cn1` [Example 100, 4-[5-[(3S)-3-aminopyrrolidine-1-carbonyl]-2-[6-(dimethylamino)-3-pyridyl]phenyl]-2-fluoro-benzonitrile], the IC50 amounted to 12.8 nM.
`CN1CCc2cc(-c3ccc(C(=O)N4CC[C@H](N)C4)cc3-c3ccc(C#N)c(F)c3)ccc21` [Example 117, 4-[5-[(3S)-3-aminopyrrolidine-1-carbonyl]-2-(1-methylindolin-5-yl)phenyl]-2-fluoro-benzonitrile]: the IC50 turned out to be 5.54 nM.
`CC(C)(O)Cn1ccc2cc(-c3ccc(C(=O)N4CC5CNCC5C4)cc3-c3ccc(C#N)c(F)c3)c(F)c(F)c21` (centres unmarked) [Example 203, 2′-(6,7-difluoro-1-(2-hydroxy-2-methylpropyl)-1H-indol-5-yl)-3-fluoro-5′-(octahydropyrrolo[3,4-c]pyrrole-2-carbonyl)-[1,1′-biphenyl]-4-carbonitrile]: the IC50 was 2.45 nM.

The same test, now with this note: read-out: IC50 (nM), Cell-Growth Inhibition Test: HEL Cells.
As for `Cn1cc(C(=O)O)c2cc(-c3ccc(C(=O)N4[C@@H]5CC[C@H]4[C@@H](N)C5)cc3-c3ccc(C#N)c(F)c3)c(F)cc21` (single isomer, unassigned) [Example 224], the IC50 turned out to be 46.2 nM.
On the same count and under the same terms, under `CC(C)n1c(=O)sc2cc(-c3ccc(C(=O)N4C5CCC4CC(N)C5)cc3-c3ccc(C#N)c(F)c3)ccc21` (stereo not drawn) [Example 138, 5′-((3-endo)-3-amino-8-azabicyclo[3.2.1]octane-8-carbonyl)-3-fluoro-2′-(3-isopropyl-2-oxo-2,3-dihydrobenzo[d]thiazol-6-yl)-[1,1′-biphenyl]-4-carbonitrile] stands 0.9 nM; under `CC(C)(C)n1nnc2cc(-c3ccc(C(=O)N4C5CCC4CC(N)C5)cc3-c3ccc(C#N)c(F)c3)c(F)cc21` (stereo not drawn) [Example 139, 5′-((3-endo)-3-amino-8-azabicyclo[3.2.1]octane-8-carbonyl)-2′-(1-(tert-butyl)-6-fluoro-1H-benzo[d][1,2,3]triazol-5-yl)-3-fluoro-[1,1′-biphenyl]-4-carbonitrile], 16.9 nM; under `Cn1nnc2cc(-c3ccc(C(=O)N4[C@@H]5CC[C@H]4C[C@@H](N)C5)cc3-c3ccc(C#N)c(F)c3)c(F)c(F)c21` [Example 145, 5′-((3-endo)-3-amino-8-azabicyclo[3.2.1]octane-8-carbonyl)-2′-(6,7-difluoro-1-methyl-1H-benzo[d][1,2,3]triazol-5-yl)-3-fluoro-[1,1′-biphenyl]-4-carbonitrile], 1.81 nM.
Take `CCn1nnc2cc(-c3ccc(C(=O)N4[C@@H]5CC[C@H]4C[C@H](N)C5)cc3-c3ccc(C#N)c(F)c3)c(F)cc21` [Example 160, 5′-((3-endo)-3-amino-8-azabicyclo[3.2.1]octane-8-carbonyl)-2′-(1-ethyl-6-fluoro-1H-benzo[d][1,2,3]triazol-5-yl)-3-fluoro-[1,1′-biphenyl]-4-carbonitrile]: the IC50 worked out at 7.03 nM.
Still for that read-out and setting: under `COc1c(F)c(-c2ccc(C(=O)N3[C@@H]4CC[C@H]3C[C@@H](N)C4)cc2-c2ccc(C#N)c(F)c2)cc2cnn(CC(C)(C)O)c12` [Example 186, 5′-((3-endo)-3-amino-8-azabicyclo[3.2.1]octane-8-carbonyl)-3-fluoro-2′-(6-fluoro-1-(2-hydroxy-2-methylpropyl)-7-methoxy-1H-indazol-5-yl)-[1,1′-biphenyl]-4-carbonitrile] stands 6.3 nM.
Turning to `CC(C)(O)Cn1ncc2cc(-c3ccc(C(=O)N4[C@@H]5CC[C@H]4C[C@@H](N)C5)cc3-c3ccc(C#N)c(F)c3)c(F)c(F)c21` [Example 188, 5′-((3-endo)-3-amino-8-azabicyclo[3.2.1]octane-8-carbonyl)-2′-(6,7-difluoro-1-(2-hydroxy-2-methylpropyl)-1H-indazol-5-yl)-3-fluoro-[1,1′-biphenyl]-4-carbonitrile], the IC50 amounted to 5.95 nM.

A further test has as its system NCI-H1417 cells (human small-cell lung cancer cell lines). The test is described as follows: Cell-growth inhibition test: NCI-H1417 cells. Type of test: cell-based. Conditions: Homo sapiens, NCI-H1417, read-out: IC50 (nM), Cell-Growth Inhibition Test: NCI-H1417 Cells. The method, then: as §1, §2
Turning to `Cn1nnc2cc(-c3ccc(C(=O)N4CC[C@H](NC5CCC5)C4)cc3-c3ccc(C#N)c(F)c3)c(F)cc21` [Example 116, 4-[5-[(3S)-3-(cyclobutylamino)pyrrolidine-1-carbonyl]-2-(6-fluoro-1-methyl-benzotriazol-5-yl)phenyl]-2-fluoro-benzonitrile], the IC50 was determined as 29.5 nM.
On to `Cn1c(=O)oc2cc(-c3ccc(C(=O)N4CC[C@H](N)C4)cc3-c3ccc(C#N)c(F)c3)ccc21` [Example 119, 4-[5-[(3S)-3-aminopyrrolidine-1-carbonyl]-2-(3-methyl-2-oxo-1,3-benzooxazol-6-yl)phenyl]-2-fluoro-benzonitrile], for which the IC50 was found to be 23.9 nM.

Staying with this test, now noted: NCI-H1417 cells; read-out: IC50 (nM), Cell-Growth Inhibition Test: NCI-H1417 Cells.
`CC(C)(O)Cc1ccc(-c2ccc(C(=O)N3C4CCC3CC(N)C4)cc2-c2ccc(C#N)c(F)c2)c(F)c1` (stereo not drawn) [Example 28, 4-[5-[(3-exo)-3-amino-8-azabicyclo[3.2.1]octane-8-carbonyl]-2-[2-fluoro-4-(2-hydroxy-2-methyl-propyl)phenyl]phenyl]-2-fluoro-benzonitrile]: the IC50 came out at 4.4 nM.
For `N#Cc1ccc(-c2cc(C(=O)N3C4CCC3CC(N)C4)ccc2-c2ccc3cccnc3c2)cc1F` (stereo not drawn) [Example 107, 4-[5-[(3-exo)-3-amino-8-azabicyclo[3.2.1]octane-8-carbonyl]-2-(7-quinonyl)phenyl]-2-fluoro-benzonitrile], the IC50 is 18.2 nM.
On to `COCCc1ccc(-c2ccc(C(=O)N3C4CCC3CC(NC(C)C)C4)cc2-c2ccc(C#N)c(F)c2)c(F)c1` (stereo not drawn) [Example 112, 2-fluoro-4-[2-[2-fluoro-4-(2-methoxyethyl)phenyl]-5-[(3-exo)-3-(isopropylamino)-8-azabicyclo[3.2.1]octane-8-carbonyl]phenyl]benzonitrile], for which the IC50 stood at 20.5 nM.
